ChEMBL document CHEMBL1154103, “Bioactive conformation analysis of cyclic imides as protoporphyrinogen oxidase inhibitor by combining DFT calculations, QSAR and molecular dynamic simulations” (Bioorg Med Chem, 2009)

Biological target: T1, Protoporphyrinogen oxidase (Bacillus subtilis (strain 168), UniProt P32397)
T1 sequence (P32397 whole entry): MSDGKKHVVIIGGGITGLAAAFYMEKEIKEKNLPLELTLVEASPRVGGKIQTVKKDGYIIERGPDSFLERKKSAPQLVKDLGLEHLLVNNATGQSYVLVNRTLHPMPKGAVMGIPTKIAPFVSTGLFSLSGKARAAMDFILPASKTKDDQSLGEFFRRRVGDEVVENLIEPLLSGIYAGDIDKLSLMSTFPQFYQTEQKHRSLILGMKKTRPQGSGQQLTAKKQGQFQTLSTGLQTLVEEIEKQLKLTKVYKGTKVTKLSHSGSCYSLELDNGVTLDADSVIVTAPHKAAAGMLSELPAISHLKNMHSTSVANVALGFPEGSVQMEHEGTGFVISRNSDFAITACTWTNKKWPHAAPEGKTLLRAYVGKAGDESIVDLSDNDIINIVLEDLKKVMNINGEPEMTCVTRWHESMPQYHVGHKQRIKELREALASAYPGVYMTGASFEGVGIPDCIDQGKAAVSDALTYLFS
Test: Inhibition of Bacillus subtilis Protoporphyrinogen oxidase by capillary electrophoresis

Row | Compound | Ki
1 | C#CCN1C(=O)COc2cc(F)c(N3C(=O)c4ccccc4C3=O)cc21 | 3310 nM
2 | CC(C)N(C(=O)Nc1cc(N2C(=O)C3=C(CCCC3)C2=O)c(F)cc1Cl)C(C)C | 229 nM
3 | O=C(Nc1ccc(Cl)cc1)Nc1cc(N2C(=O)C3=C(CCCC3)C2=O)c(F)cc1Cl | 28.2 nM
4 | C#CCN1C(=O)COc2cc(F)c(N3C(=O)c4ccc(C)cc4C3=O)cc21 | 2820 nM
5 | CCCN(CCC)C(=O)Nc1cc(N2C(=O)C3=C(CCCC3)C2=O)ccc1Cl | 288 nM
6 | CC(C)(CCl)C(=O)Nc1cc(N2C(=O)C3=C(CCCC3)C2=O)c(F)cc1Cl | 871 nM
7 | CCC(C(=O)OC)N1C(=O)COc2cc(F)c(N3C(=O)C4=C(CCCC4)C3=O)cc21 (stereo not given) | 8.13 nM
8 | N#CCN1C(=O)COc2cc(F)c(N3C(=O)c4ccccc4C3=O)cc21 | 1020 nM
9 | O=C(NC(=O)c1c(Cl)cccc1Cl)Nc1cc(N2C(=O)C3=C(CCCC3)C2=O)c(F)cc1Cl | 12.9 nM
10 | C#CCN1C(=O)C(C)Oc2cc(F)c(N3C(=O)c4cccc(F)c4C3=O)cc21 (stereo not given) | 5010 nM
11 | O=C(NC(=O)c1c(F)cccc1Cl)Nc1cc(N2C(=O)C3=C(CCCC3)C2=O)c(F)cc1Cl | 8.32 nM
12 | CCOC(=O)C(C)N1C(=O)C(C)Oc2cc(F)c(N3C(=O)C4=C(CCCC4)C3=O)cc21 (stereo not given) | 110 nM
13 | CCOC(=O)C(C)N1C(=O)COc2cc(F)c(N3C(=O)C4=C(CCCC4)C3=O)cc21 (stereo not given) | 120 nM
14 | O=C(NC(=O)c1ccccc1)Nc1cc(N2C(=O)C3=C(CCCC3)C2=O)c(F)cc1Cl | 89.1 nM
15 | COC(=O)C(C)N1C(=O)C(C)Oc2cc(F)c(N3C(=O)C4=C(CCCC4)C3=O)cc21 (stereo not given) | 49 nM
16 | C#CCN1C(=O)C(C)Oc2cc(F)c(N3C(=O)c4ccc(C)cc4C3=O)cc21 (stereo not given) | 4790 nM
17 | O=C(NC(=O)c1cccc(OC(F)(F)F)c1)Nc1cc(N2C(=O)C3=C(CCCC3)C2=O)c(F)cc1Cl | 33.9 nM
18 | CNC(=O)Nc1cc(N2C(=O)C3=C(CCCC3)C2=O)c(F)cc1Cl | 372 nM
19 | O=C(NC(=O)c1ccc(Cl)cc1Cl)Nc1cc(N2C(=O)C3=C(CCCC3)C2=O)c(F)cc1Cl | 26.9 nM
20 | COC(=O)CN1C(=O)C(C)Oc2cc(F)c(N3C(=O)C4=C(CCCC4)C3=O)cc21 (stereo not given) | 39.8 nM
21 | CCOC(=O)C(c1ccccc1)N1C(=O)C(C)Oc2cc(F)c(N3C(=O)C4=C(CCCC4)C3=O)cc21 (stereo not given) | 91.2 nM
22 | CCOC(=O)C(CC)N1C(=O)COc2cc(F)c(N3C(=O)C4=C(CCCC4)C3=O)cc21 (stereo not given) | 44.7 nM
23 | CCOC(=O)CN1C(=O)C(C)Oc2cc(F)c(N3C(=O)C4=C(CCCC4)C3=O)cc21 (stereo not given) | 60.3 nM
24 | O=C(NC(=O)c1ccccc1)Nc1cc(N2C(=O)C3=C(CCCC3)C2=O)ccc1Cl | 6170 nM
25 | O=C(Nc1cccc(C(F)(F)F)c1)Nc1cc(N2C(=O)C3=C(CCCC3)C2=O)c(F)cc1Cl | 25.1 nM
